Experiments:
[1] = test system: APP in SH-SY-5Y human neuroblastoma cells; assay: APP in vitro, Western blot; type: cell-based; conditions: 0, 0.1, 1, 5 and 10 μM, FIG. 1
[2] = test system: aSYN in SH-SY-5Y human neuroblastoma cells; assay: alpha-synuclein in vitro, Western blot; type: cell-based; conditions: 0, 0.1, 1, 5 and 10 μM, FIG. 5
Protocol: • A. FIG. 5, alpha-synuclein in vitro. […] On the left is a Western blot showing butanetap inhibition of aSYN in relation to Actin standard at concentrations of 0, 0.1, 1, 5 and 10 μM and on the right a graph showing the same data plotted for statistical analysis purposes. • B. FIG. 6, alpha-synuclein brain in vivo. […] The animals were only treated for 2 weeks, so in brain it takes butanetap only 2 weeks to lower levels of alpha-synuclein. • C. FIG. 7, alpha-synuclein in gut in vivo. Gut levels of aSYN following treatment of PD A53T mice with 10 mg/kg for 21 weeks and 21 days reduced αSYN levels in the gut as shown by Western Blot.

[3] = test system: fully differentiated healthy resting nerve cells; assay: Translation of neurotoxic aggregating proteins in differentiated nerve cells; type: cell-based
Description: Therefore, the original data concerning the effects of butanetap working under all conditions is wrong. (See, e.g., Lahiri, et al., “The Experimental Alzheimer's Disease Drug butanetap [(+)-Phenserine] Lowers Amyloid-β Peptide Levels in Cell Culture and Mice”, J. Pharmacol. Ther. 320:386-396, 2007 (hereby incorporated by reference)). It only works in stressed cells, dividing cells and sick cells, e.g., those cells that have high levels of iron.

[4] = test system: APP, Tau, αSYN and inflammatory markers in CSF; assay: MCI subjects proof of mechanism study, CSF markers before and after 10 days; type: in vivo, human
Description: (§1) Three Phase I clinical studies have established butanetap's safety. […] Therefore, we conclude that a much lower single daily butanetap dose would be effective in the proposed study.

rat acute glaucoma model = assay: Acute glaucoma model; type: in vivo
Description: (§2) Butanetap's efficacy in treating neurodegeneration in animal models: Restored memory and learning in an APP/PS1 transgenic (tg) mouse model of AD; Restored memory and learning in a Ts65dn mouse model of Down syndrome (DS) [W. Mobley, UCSD, submitted 2020]; Preserved the retina in acute glaucoma [J Sundstrom; Hershey Medical School]; Restored colonic motility in a human SNCAA53T tg mouse model of PD (Kuo et. al., Am J Neurodegener Dis 2019; 8(1):1-15 www.AJND.us/ISSN:216 591X/AJND0086080: Translational inhibition of α-synuclein by Butanetap (Posiphen) normalizes distal colon motility in transgenic Parkinson mice); Preserved memory and learning in traumatic brain injury rats (M-F Chesselet, submitted 2020).
(§3) Butanetap's reversal of the neurotoxic cascade: Butanetap's mechanism of action is related to APP, Tau, and aSYN expression being regulated by RP1 and by iron and the way these proteins contribute to neurodegeneration by accumulating as toxic aggregates that impair axonal transport and synaptic transmission, causing inflammation, and, finally, leading to nerve cell death (as described previously).

[5] = test system: traumatic brain injury rats; assay: Traumatic brain injury rats; type: in vivo, rat
Description: as §2, §3

[6] = test system: human SNCAA53T tg mouse model of PD; conditions: SNCAA53T tg mice; cited from earlier work
[7] = test system: fully differentiated Down syndrome nerve cells; assay: Vesicle transport in Down syndrome nerve cells; type: cell-based
Description: as §3

[8] = test system: neuroblastoma cells (SH-SY5Y); assay: Gingipain-induced cell aggregation; type: cell-based; conditions: 24 hours RgpB (10 ug/ml), Kgp (10 ug/ml), or both, FIG. 11
[9] = Efficacious concentration in tissue culture; type: cell-based
[10] = test system: Ts65dn mouse model of Down syndrome (DS); assay: Ts65dn mouse model of Down syndrome; type: in vivo; conditions: Ts65dn mice
Description: as §2

[11] = Double Alzheimer/Parkinson phase 2 clinical trial; type: in vivo, human
Description: as §1

[12] = Plasma and brain levels in humans, calculated and extrapolated from mice data
Description: The doses are provided in mg/kg; mg dose for a 70 kg human; plasma levels in mice and humans (ng/ml); plasma levels in humans (nM); brain levels in mice and humans (ng/gram); oral human efficacious and safe dose (mg/day); IP/P human efficacious and safe dose (mg/day); and IV human efficacious and safe dose (mg/day).

APP and its fragments = assay: APP and fragments in hippocampus of APP/PS1 transgenic AD mice; type: in vivo
Description: GAPDH and Synaptophysin were loading controls. FIG. 2 also includes a collection of graphs showing relative density of APP plotted against control and time after butanetap treatment; relative density of CTFβ plotted against control and time after butanetap treatment; relative density of CTFα plotted against control and time after butanetap treatment; Aβ42 levels in brain tissue plotted against control and time after butanetap treatment; and Aβ40 levels in brain tissue plotted against control and time after butanetap treatment. Finally, FIG. 2 also includes a Western blot showing levels of APP, NSB, CTFβ, and CTFα after butanetap treatment over time (minutes).

[13] = dose 0.014 mg/kg, 1.0 mg for 70 kg
[14] = dose 0.07 mg/kg, 4.9 mg for 70 kg
[15] = dose 0.143 mg/kg, 10.0 mg for 70 kg
[16] = dose 0.16 mg/kg, 11.2 mg for 70 kg
[17] = dose 0.21 mg/kg, 14.7 mg for 70 kg
[18] = dose 0.23 mg/kg, 16.1 mg for 70 kg
[19] = dose 0.29 mg/kg, 20.3 mg for 70 kg
[20] = dose 0.34 mg/kg, 23.8 mg for 70 kg
[21] = dose 0.57 mg/kg, 39.9 mg for 70 kg
[22] = dose 1 mg/kg, 70.0 mg for 70 kg
[23] = dose 1.14 mg/kg, 79.8 mg for 70 kg
[24] = dose 1.71 mg/kg, 119.7 mg for 70 kg
[25] = dose 2.13 mg/kg, 149.1 mg for 70 kg
[26] = dose 2.29 mg/kg, 160.3 mg for 70 kg

For CN1CC[C@]2(C)c3cc(OC(=O)Nc4ccccc4)ccc3N(C)C12 (stereo partly drawn) [butanetap, (3aR)-1,3a,8-trimethyl-1,2,3,3a,8,8a-hexahydropyrrolo[2,3-b]indol-5-yl phenylcarbamate], the “APP in relation to Actin standard” value [1] was “lowers APP in vitro in a dose-dependent manner”, the “aSYN in relation to Actin standard” value [2] was “lowers aSYN in vitro in a dose-dependent manner” and the “translation of neurotoxic aggregating proteins” value [3] was “does not inhibit”. The “aggregating proteins (APP/Aβ, tau/phospho-tau, alpha-synuclein) in CSF” value ([4]; MCI subjects, 10 days of administration, FIG. 8) was “normalized”, the inflammation ([4]; human CSF of MCI subjects) was “lowered” and the retina (rat acute glaucoma model; acute glaucoma) was “Preserved”. The nerve cells (rat acute glaucoma model; rat acute glaucoma model) was “protected”, the inflammation ([5]; rat brain after TBI) was “lowered” and the impaired synaptic transmission ([5]; rat striatum after TBI) was “Normalized”. The nerve cells ([5]; rat substantia nigra after TBI) was “protected”, the memory and learning ([5]; traumatic brain injury rats) was “Preserved” and the colonic motility [6] was “Restored”. For the same molecule, the “anterograde and retrograde vesicle transport” value [7] was “Normalized”, the gingipain-induced cell aggregation [8] was “blocks” and the “dose found to be efficacious” value [9] was 1 nM. The memory and learning [10] was “Restored”, the “axonal and synaptic function” value ([11]; AD and PD patients) was “improved” and the inflammatory markers ([11]; AD and PD patients) was “reduced”. For the same molecule, the neurotoxic protein biomarkers ([11]; AD and PD patients) was “reduced”, the “blood brain barrier crossing” value ([11]; AD and PD patients, once daily) was “crossed the blood brain barrier” and the “cognition as measured by ADAS-Cog11 and WAIS coding speed” value ([11]; AD patients, 80 mg QD, significant versus baseline, not versus placebo) was “improved”. The “motor function as measured by MDS-UPDRS (Part II, III, IV and total)” value ([11]; PD patients, 5, 10, 20, 40, 80 mg QD, maximum improvement for 10 & 20 mg) was “improved at all doses”, the “WAIS speed and accuracy” value ([11]; PD patients, significant versus placebo at 5, 20 and 80 mg) was “improved” and the “Brain levels in humans” value [12, 13] was 8 ng/gram. The “Plasma levels in human” value [12, 13] was 1 ng/mL, the “Plasma levels in humans” value [12, 13] was 3 nM and the “Brain levels in humans” value [12, 14] was 16 ng/gram. The “Plasma levels in human” value [12, 14] was 2 ng/mL, the “Plasma levels in humans” value [12, 14] was 6 nM and the “Brain levels in humans” value [12, 15] was 29.6 ng/gram. For the same molecule, the “Plasma levels in human” value [12, 15] was 3.7 ng/mL, the “Plasma levels in humans” value [12, 15] was 10 nM and the “Brain levels in humans” value [12, 16] was 45.6 ng/gram. The “Plasma levels in human” value [12, 16] was 5.7 ng/mL, the “Plasma levels in humans” value [12, 16] was 17 nM and the “Brain levels in humans” value [12, 17] was 92 ng/gram. For the same molecule, the “Plasma levels in human” value [12, 17] was 11.5 ng/mL, the “Plasma levels in humans” value [12, 17] was 32 nM and the “Brain levels in humans” value [12, 18] was 103.2 ng/gram. For the same molecule, the “Plasma levels in human” value [12, 18] was 12.9 ng/mL, the “Plasma levels in humans” value [12, 18] was 38 nM and the “Brain levels in humans” value [12, 19] was 112 ng/gram. The “Plasma levels in human” value [12, 19] was 14 ng/mL, the “Plasma levels in humans” value [12, 19] was 41 nM and the “Brain levels in humans” value [12, 20] was 160 ng/gram. For the same molecule, the “Plasma levels in human” value [12, 20] was 20 ng/mL, the “Plasma levels in humans” value [12, 20] was 58 nM and the “Brain levels in humans” value [12, 21] was 336 ng/gram. For the same molecule, the “Plasma levels in human” value [12, 21] was 42 ng/mL, the “Plasma levels in humans” value [12, 21] was 123 nM and the “Brain levels in humans” value [12, 22] was 720 ng/gram. The “Plasma levels in human” value [12, 22] was 90 ng/mL, the “Plasma levels in humans” value [12, 22] was 264 nM and the “Brain levels in humans” value [12, 23] was 960 ng/gram. The “Plasma levels in human” value [12, 23] was 120 ng/mL, the “Plasma levels in humans” value [12, 23] was 352 nM and the “Brain levels in humans” value [12, 24] was 1600 ng/gram. The “Plasma levels in human” value [12, 24] was 200 ng/mL, the “Brain levels in humans” value [12, 25] was 1920 ng/gram and the “Plasma levels in human” value [12, 25] was 240 ng/mL. For the same molecule, the “Brain levels in humans” value [12, 26] was 3040 ng/gram, the “Plasma levels in human” value [12, 26] was 380 ng/mL and the “APP and its fragments (all related peptides) in hippocampus” value (APP and its fragments; FIG. 2) was “reduced”. The “duration of reduction of APP and related peptides after the last dose” value (APP and its fragments; hippocampus) was “at least 9 hours”.

Reference: patent US12582632B2, “Inhibition of neurological injuries due to infections via administration of Butanetap and analogs thereof” (priority 2021, dated 2026)
